Values joined by “and” are separate entries in the source; they are usually repeats but may differ in a detail not shown here. Equal entries are not always repeated. Where two headings read alike, the source gives them in different places.
Columns and labels:
HepaRG cells [1] = test: PA and PANO content in cell culture medium of HepaRG cells upon pharmacological transporter inhibition (LC-MS/MS); type: in vitro ADME, human
HepaRG cells [2] = test: Cell viability (MTT assay) of HepaRG cells with and without transporter inhibitors; type: cell-based, human; conditions: for viability [%], single replicates: repl. 1-6; for Cell viability (MTT), percent of solvent control, Mean [%]: 24 h, listed as Sc
Procedure: (§1) In the case of TEA, cells were pre-incubated 24 h prior to PA treatment. The inhibitors were applied anew at PA incubation.
(§2) To analyze the cytotoxic effects of PAs on HepaRG cells with non-inhibited and inhibited hepatic transporters, the cells were seeded at a density of 9000 cells per well in the inner 60 wells of a 96-well plate and cultivated as described in Section 4.2. After four weeks of cultivation, FBS concentration in the cell culture medium was reduced to 2% for 48 h prior incubation. Thereby, inhibitory effects of peptide growth factors from the FBS on xenobiotic-metabolizing enzymes were minimized. […] The cells were pre-incubated with pharmacological inhibitors as described in Section 4.3. […] Cell viability was analyzed via the MTT test. 10 µl MTT reagent (5 mg/mL MTT dissolved in phosphate-buffered saline, PBS) was added per well and incubated for 1 h at 37 °C. The supernatant was discarded, and the violet formazan crystals dissolved in 130 µL desorption solution (0.7% sodium dodecyl sulfate in propan-2-ol). After shaking for 20 min (under protection from light), absorbance was measured on a TecanM200Pro spectrometer (Tecan Group Ltd., Männedorf, Switzerland) at a wavelength of 570 nm, along with a reference wavelength of 630 nm.

[3] = as above; type: cell-based, human; conditions: human, HepaRG cells
Procedure: as §1, §2

[4] = mean of 6 replicates, no inhibitor, read-out: viability, MW [%]
[5] = repl. 1-6, read-out: viability [%], single replicates

In the case of `C/C=C1/C[C@@H](C)[C@@](C)(O)C(=O)OCC2=CCN3CC[C@@H](OC1=O)[C@@H]23` [Senecionine, senecionine], the “PA in medium, single replicates (repl.)” value (HepaRG cells [1]; no inhibitor, 0h) is reported as 100%, the “PA in medium, single replicates (repl.)” value (HepaRG cells [1]; plus MK-571, 0h) is reported as 100% and the “viability [%], single replicates” value (HepaRG cells [2]; 1 µM) is reported as 104.702% and 96.5101% and 108.622% and 97.0096% and 97.8347%. For the same compound, the “viability [%], single replicates” value (HepaRG cells [2]; 10 µM) was 86.1735% and 91.8709% and 86.9963% and 83.2717% and 79.1258%, the “viability [%], single replicates” value (HepaRG cells [2]; 50 µM) was 59.5192% and 77.2207% and 70.6602% and 63.183% and 55.3454% and the “viability [%], single replicates” value (HepaRG cells [2]; 100 µM) was 53.5295% and 51.7769% and 80.0886% and 68.6733% and 54.6212% and 49.5185%. The “viability [%], single replicates” value (HepaRG cells [2]; 250 µM) was 44.9713% and 47.0747% and 66.5507% and 52.719% and 45.8871% and 35.0536%, the “cytotoxicity of the applied concentration” value (HepaRG cells [2]; HepaRG, 2.5 µM, Figure S2) was “not cytotoxic” and the “Cell viability (MTT), percent of solvent control, Mean [%]” value (“Cell viability (MTT), percent … [%]” for short) (HepaRG cells [2]; HepaRG, 250 µM PA + CsA (10 µM, 1 h pre-incubation)) was 63.5771%. For the same compound, the “Cell viability (MTT), percent … [%]” value (HepaRG cells [2]; HepaRG, 250 µM PA + Qu (100 µM, 1 h pre-incubation)) was 91.9218%, the “Cell viability (MTT), percent … [%]” value (HepaRG cells [2]; HepaRG, 250 µM PA + TEA (3 mM, 24 h pre-incubation)) was 69.5844% and the “Cell viability (MTT), percent … [%]” value (HepaRG cells [2]; HepaRG, 250 µM PA only) was 46.8929%. It also gave a viability at 24 h, 1 µM [3, 4] of 100%, a viability at 24 h, 1 µM [3, 5] of 95.1% and a viability at 24 h, 10 µM [3, 4] of 84.6%. For the same compound, the viability at 24 h, 10 µM [3, 5] was 80%, the viability at 24 h, 50 µM ([3]; 50 µM, mean of 6 replicates, no inhibitor, read-out: viability, MW [%]) was 65% and the viability at 24 h, 100 µM ([3]; 100 µM, mean of 6 replicates, no inhibitor, read-out: viability, MW [%]) was 59.7%. For the same compound, the viability at 24 h, 250 µM ([3]; 250 µM, mean of 6 replicates, no inhibitor, read-out: viability, MW [%]) was 48.7%, the viability at 24 h, 250 µM ([3]; HepaRG, 250 µM PA only, 24 h, read-out: Cell viability (MTT), percent of solvent control, Mean [%]) was 46% and the viability at 24 h, 250 µM ([3]; with 5 µM Ko143, HepaRG, 250 µM PA + Ko143 (5 µM, 1 h pre-incubation), 24 h, read-out: Cell viability (MTT), percent of solvent control, Mean [%]) was 46.5%. The viability at 24 h, 250 µM ([3]; with 50 µM MK-571, HepaRG, 250 µM PA + MK571 (50 µM, 1 h pre-incubation), 24 h, read-out: Cell viability (MTT), percent of solvent control, Mean [%]) was 59.1%, the viability at 24 h, 250 µM ([3]; with CsA 10 µM, HepaRG, 250 µM PA + CsA (10 µM, 1 h pre-incubation), 24 h, read-out: Cell viability (MTT), percent of solvent control, Mean [%]) was 63% and the viability at 24 h, 250 µM ([3]; with Qu 100 µM, HepaRG, 250 µM PA + Qu (100 µM, 1 h pre-incubation), 24 h, read-out: Cell viability (MTT), percent of solvent control, Mean [%]) was 90%. The viability at 24 h, 250 µM ([3]; with TEA 3 mM, HepaRG, 250 µM PA + TEA (3 mM, 24 h pre-incubation), 24 h, read-out: Cell viability (MTT), percent of solvent control, Mean [%]) was 69%.

Reference: PMC8067754, “Active Transport of Hepatotoxic Pyrrolizidine Alkaloids in HepaRG Cells” (International Journal of Molecular Sciences, 2021)
